{"source": "patent US9266817B2", "about": "“Catecholamine derivatives for obesity and neurological disorders” (EMORY UNIVERSITY, priority 2009, dated 2016)", "key": {"TrkB [1]": {"biological_target": "T1, TrkB (Rattus norvegicus, UniProt Q63604)", "T1 construct": "endogenous in cells; host or cells: primary rat cortical and hippocampal neurons", "T1 sequence (Q63604 32-821)": "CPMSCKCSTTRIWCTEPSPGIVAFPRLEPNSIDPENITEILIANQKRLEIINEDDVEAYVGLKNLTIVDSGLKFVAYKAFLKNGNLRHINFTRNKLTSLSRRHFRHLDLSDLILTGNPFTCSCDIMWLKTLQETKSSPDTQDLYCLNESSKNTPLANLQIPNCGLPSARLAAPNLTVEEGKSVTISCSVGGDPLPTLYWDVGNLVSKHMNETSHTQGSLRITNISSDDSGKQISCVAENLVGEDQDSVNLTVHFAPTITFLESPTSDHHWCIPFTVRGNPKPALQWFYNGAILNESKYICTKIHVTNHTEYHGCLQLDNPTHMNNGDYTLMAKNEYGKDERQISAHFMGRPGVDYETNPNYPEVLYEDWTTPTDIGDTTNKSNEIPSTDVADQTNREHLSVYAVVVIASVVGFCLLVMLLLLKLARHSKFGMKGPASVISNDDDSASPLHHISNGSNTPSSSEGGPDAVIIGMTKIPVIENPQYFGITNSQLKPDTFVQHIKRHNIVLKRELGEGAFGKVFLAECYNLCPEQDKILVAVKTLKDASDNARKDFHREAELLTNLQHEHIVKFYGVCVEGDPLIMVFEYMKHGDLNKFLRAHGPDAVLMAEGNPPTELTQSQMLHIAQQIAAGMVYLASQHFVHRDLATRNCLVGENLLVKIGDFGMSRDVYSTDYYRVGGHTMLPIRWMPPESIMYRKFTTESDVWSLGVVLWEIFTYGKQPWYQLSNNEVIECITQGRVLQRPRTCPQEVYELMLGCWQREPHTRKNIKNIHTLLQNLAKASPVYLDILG", "assay": "Immunofluorescent staining with anti-phospho-TrkB Y816 in primary hippocampal neurons", "type": "cell-based", "conditions": "300 nM, 30 min", "procedure": "Primary Rat Cortical and Hippocampal Neuron Cultures\nPrimary hippocampal neurons were seeded on poly-L-lysine coated coverslips in a 12-well plate. After 7 days in vitro, the neurons were treated with 100 ng/ml BDNF or variety of neurotransmitters and 7,8-dihydroxyflavone compound (500 nM) for 30 min, and then washed with PBS. Cells were fixed with 3% formaldehyde in PBS at room temperature for 15 min. The cells were then permeabilized and blocked by 0.4% Triton X-100 and 2% FBS in PBS at room temperature for 15 minutes, washed with PBS three times and treated with anti-MAP2 (1:200) and anti-phospho-TrkB antibodies (1:100). After staining with FITC- or Rhodamine-conjugated secondary antibody, the coverslips were mounted on slides. Fluorescent images were taken by OLYMPUS IX71 fluorescence microscope (Olympus; Center Valley, Pa.).\n(§1) To explore whether monoamine neurotransmitters, including catecholamines (see, e.g., FIG. 1), could stimulate TrkB activation, hippocampal neurons were treated with 300 nM of catecholamines, serotonin, and melatonin for 30 min."}, "TrkB [2]": {"biological_target": "T1, TrkB", "assay": "Screening of catecholamine derivatives for TrkB activation in primary cortical neurons (anti-p-TrkB-Y-816 immunoblot)", "type": "cell-based", "conditions": "500 nM, 30 min", "procedure": "Catecholamines can directly bind to the kinase domain of the TrkB receptor and activate it. However, the catecholamines are not able to cross through the blood brain barrier. […] Cortical neurons (7 DIV cortical neurons from 18 day old Sprague Dawley rat embryos) were treated with 500 nM of the selected compound for 30 min and cell lysates were prepared. The cell lysates ([…]) were analyzed for TrkB activation by immunoblotting with anti-p-TrkB-Y-816 antibody.\nCatecholamine derivatives as described herein, including Compound I-2, Compound I-5, Compound I-7, Compound I-8, Compound I-9, Compound I-10, Compound I-11, Compound I-14, Compound I-15, Compound I-17, Compound I-18, and isoproterenol, were screened for TrkB activation in primary cortical neurons. Cortical neurons (7 DIV cortical neurons from 18 day old Sprague Dawley rat embryos) were treated with 500 nM of the selected compound for 30 min and cell lysates were prepared. The cell lysates ([…]) were analyzed for TrkB activation by immunoblotting with anti-p-TrkB-Y-816 antibody."}, "TrkB [3]": {"tested_on": "TrkB", "assay": "TrkB activation in mouse brain after administration of catecholamine derivatives (anti-p-TrkB-Y-816 immunoblot)", "type": "in vivo", "conditions": "50 mg/kg orally (in saline), C57BL/6J mice", "procedure": "To explore whether these compounds could stimulate TrkB in vivo, 50 mg/kg of Compound I-11, Compound I-8, and Compound I-2 (2-(methylamino)-3′,4′-dihydroxy-acetophenone) were each orally administered (in saline) to 2-month-old C57BL/6J mice. The mice were sacrificed at different time points and TrkB activation in the brains of the mice was monitored by immunoblotting with anti-p-TrkB-Y-816 antibody.\nTo determine the minimal required dosages for Compound I-11 and Compound I-8, different doses of the compounds were each orally administered to mice. The mice were sacrificed after 4 hours, and the brain lysates were analyzed by immunoblotting with anti-p-TrkB-Y-816 antibody.\nTo search for orally bioactive catecholamines, catecholamine derivatives described herein were screened using primary neuronal cultures. The in vitro active compounds, Compounds I-8 and I-11, were adminstered into two to three month old C57BL/6J mice orally, intraperitoneally, and in drinking water. For oral administration, the mice were administered 0 mg (control), 5 mg, 10 mg, 20 mg, or 50 mg of Compound I-8 or Compound I-11. After 4 hours, TrkB phosphorylation in mouse brain was monitored by analyzing the brain lysates using immunoblotting with anti-p-TrkB-Y-816 antibody. The ratios of p-TrK/total TrkB were quantified (FIG. 27A). For intraperitoneal administration, 50 mg/kg of Compound I-8 or Compound I-11 were intraperitoneally injected into the mice. The brain lysates were prepared at different times (0 hr, 1 hr, 2 hr, 4 hr, and 8 hr) and were analyzed by immunoblotting with anti-p-TrkB-Y-816 antibody (FIG. 27B). Compound I-8 and Compound I-11 were dissolved in drinking water and given to mice. After 24 h, the brain lysates were prepared and analyzed by immunoblotting with anti-p-TrkB-Y-816 antibody (FIG. 27C). […] Therefore, these compounds are useful in treating various neurological or neuropsychiatric diseases as described herein."}, "TrkB [4]": {"biological_target": "T1, TrkB", "assay": "TrkB activation in cortical neurons after pretreatment with antibodies, receptor antagonists, transporter inhibitors or EDTA (anti-p-TrkB-Y-816 immunoblot)", "type": "cell-based", "source_text": "(§2) Both antidepressants and exercise increase hippocampal BDNF mRNA expression through enhanced 5-HT and/or NE neurotransmission (Siuciak et al., Pharmacol. Biochem. Behav., 56:131-137, 1997; Dias et al., Neuropharmacology, 45:553-563, 2003; Ivy et al., Pharmacol. Biochem. Behav., 75:81-88, 2003; Garza et al., Pharmacol. Biochem. Behav., 77:209-220, 2004). If catecholamines activated TrkB signaling indirectly by promoting BDNF generation, then scavenging BDNF with its specific antibody would be expected to diminish catecholamines-mediated activation of TrkB. Cultured cortical neurons were pretreated with BDNF-IgG for 30 minutes followed by exposure to BDNF (10 ng/ml) or catecholamines (100 nM) for 15 minutes. […] It was then determined whether catecholamines could activate TrkB in neurons cultured from mice carrying a null mutation of BDNF.\nTo further investigate the specificity of catecholamines in inducing TrkB activation, cortical neurons were pretreated with control IgG or norepinephrine IgG, a rabbit polyclonal antibody for norepinephrine, followed by catecholamines.\n(§3) It was then determined whether catecholamines could activate TrkB in neurons cultured from mice carrying a null mutation of NET.\n(§4) The cell lysates were analyzed by immunoblotting with anti-p-TrkB-Y-816.\nas §4\nA group of primary cortical neurons were pretreated with 1 mM EDTA, and another group of primary cortical neurons were not pretreated. Both groups of primary cortical neurons were then treated with either Zn (100 μM) or a catecholamine (100 nM) for 15 minutes. The neuronal cell lysates were analyzed by immunoblotting with anti-p-TrkB-Y-816 antibody."}, "TrkB [5]": {"tested_on": "TrkB", "type": "in vivo", "conditions": "BDNF conditional knockout mice, compared to vehicle control"}, "TrkB [6]": {"biological_target": "T2, TrkB (Mus musculus, UniProt P15209, F616A)", "T2 construct": "from tissue; host or cells: mouse brain", "T2 sequence (P15209 32-821 F616A)": "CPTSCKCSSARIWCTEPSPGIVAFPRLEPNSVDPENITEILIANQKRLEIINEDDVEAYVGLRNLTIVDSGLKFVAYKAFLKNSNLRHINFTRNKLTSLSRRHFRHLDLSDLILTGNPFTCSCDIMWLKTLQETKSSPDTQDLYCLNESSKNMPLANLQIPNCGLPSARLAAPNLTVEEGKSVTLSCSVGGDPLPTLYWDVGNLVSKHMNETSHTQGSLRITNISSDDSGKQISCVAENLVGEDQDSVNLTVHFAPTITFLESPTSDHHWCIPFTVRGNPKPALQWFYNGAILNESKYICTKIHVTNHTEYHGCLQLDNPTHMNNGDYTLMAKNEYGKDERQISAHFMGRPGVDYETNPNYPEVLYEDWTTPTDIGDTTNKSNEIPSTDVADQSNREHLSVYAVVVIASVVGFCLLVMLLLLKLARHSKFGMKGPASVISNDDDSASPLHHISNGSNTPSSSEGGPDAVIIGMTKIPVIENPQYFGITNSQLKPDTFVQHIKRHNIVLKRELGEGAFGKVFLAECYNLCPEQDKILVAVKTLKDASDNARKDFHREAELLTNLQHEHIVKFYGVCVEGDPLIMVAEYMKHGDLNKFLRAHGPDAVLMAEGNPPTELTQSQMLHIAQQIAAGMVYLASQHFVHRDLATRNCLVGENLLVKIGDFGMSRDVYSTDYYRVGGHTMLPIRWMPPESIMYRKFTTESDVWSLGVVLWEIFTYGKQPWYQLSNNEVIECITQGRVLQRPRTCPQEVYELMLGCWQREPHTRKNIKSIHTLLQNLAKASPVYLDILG", "type": "in vivo", "conditions": "L-DOPA 50 mg/kg, DOPS 100 mg/kg, 1NMPP1 50 μM", "procedure": "The DOPS concentration was 20 mg/ml, the vitamin C concentration was 2 mg/ml, and the benserazide concentration was 5 mg/ml. The vitamin C prevents oxidation of the DOPS, and the benserazide is a peripheral inhibitor of AADC and restricts the production of NE from DOPS to the brain. The compounds were added to a tube, and 20 μl of 10 M HCl was added to each ml of DOPS solution. The appropriate amount of water was added to the tube, and then HCl was added to achieve the desired volume. For example, to make 1 mL of a DOPS solution, 20 mg DOPS, 2 mg vitamin C, and 5 mg benserazide were added to a tube, followed by 980 μL of water and 20 μL of 10 M HCl. The solution was vortexed until all DOPS was dissolved. The DOPS solution was injected subcutaneously in a volume of 50 μl/g of mouse. The appropriate amount of DOPS solution was pipetted into a clean tube, followed by the amount of 10 M NaOH required to exactly neutralize the HCl. The solution was then shaken. The amount of 10 M NaOH is the weight of the mouse in microliters. For example, for a 20 g mouse, pipet 1 ml of the DOPS solution is pipetted into a tube and 20 μL of 10 M NaOH is added. For a 30 g mouse, 1.5 mL of the DOPS solution is pipetted into a tube and 30 μl of 10 M NaOH is added. Two to four month-old TrkBF616A mice were pretreated with 1NMPP1 in drinking water (50 μM) 1 day before L-DOPA (50 mg/kg) or DOPS (100 mg/kg) intraperitoneal injection. At times of 2 hours and 5 hours after drug administration, the L-DOPA or DOPS-treated mice were sacrificed, respectively. The brain lysates were prepared and analyzed by immunoblotting against anti-phospho-TrkB Y816 and TrkA Y794 antibodies.\n(§5) TrkB F616A mice were pretreated with 1NMPP1 (50 μM) before L-DOPA or DOPS administration."}, "TrkB [7]": {"biological_target": "T1, TrkB", "assay": "Immunoblotting of TrkB phosphorylation in primary cortical neurons treated with catecholamines", "type": "cell-based", "conditions": "for TrkB activation (immunoblotting of neuronal lysates): primary neurons", "procedure": "Primary cultured rat cortical neurons were prepared as follows. E17 rat pups were decapitated and cortex was extirpated, cross chopped and suspended by pipetting for separation in 5% fetal calf serum (FCS), 5% horse serum (HS) DMEM. The cell suspension was then centrifuged at 250×g for 5 min. This operation was repeated. Cells were seeded into polyethyleneimine-coated 10 cm^2 dishes and 12-well plates including coated-coverslips and incubated at 37° C. in 5% CO2/95% air. After 3 hours, the culture medium was changed to Neurobasal containing B-27 supplement (Invitrogen; Carlsbad, Calif.) and incubated for 4 days. For maintenance, half of the culture medium was changed to fresh Neurobasal/B27 in every 4 days. After 1 week, the dished cultured neurons were ready for use.\nas §1"}, "TrkB [8]": {"biological_target": "T3, TrkB (Mus musculus, UniProt P15209)", "T3 construct": "endogenous in cells; host or cells: primary cortical neurons from BDNF-null, TrkB +/- cross, TrkC knockout and NET -/- mice", "T3 sequence (P15209 32-821)": "as the sequence (P15209 32-821 F616A) above, with A585F counted along it", "type": "cell-based, mice", "conditions": "compared to wild-type control neurons", "procedure": "as §3"}, "TrkB [9]": {"biological_target": "T3, TrkB", "assay": "TrkB activation in cortical neurons cultured from BDNF-null mice", "type": "cell-based", "conditions": "15 min", "source_text": "as §2"}, "TrkB F616A": {"biological_target": "T4, TrkB F616A (Mus musculus, UniProt P15209, F616A)", "T4 construct": "endogenous in cells; host or cells: primary cortical neurons from TrkB F616A knock-in mice", "T4 sequence (P15209 32-821 F616A)": "as the sequence (P15209 32-821 F616A) above", "assay": "TrkB phosphorylation in TrkB F616A or TrkA F592A cortical neurons pretreated with K252a or 1NMPP1", "type": "cell-based, mice", "conditions": "TrkB F616A knock-in cortical neurons", "procedure": "as §5\nOn day 7, the primary cortical neurons were pretreated with 100 nM K252a or 1NMPP1 for 30 min, followed by 500 nM ADPP and DDAP. Cell lysates were analyzed by Western blotting."}}}
{"smiles": "O=C(O)Cc1c[nH]c2ccc(O)cc12", "note": "[Compound 5-HIAA, 5-hydroxyindoleacetic acid]", "values": [{"measurement": "TrkB tyrosine phosphorylation (immunofluorescent staining)", "setting": "TrkB [1]", "value": "had no effect"}]}
{"smiles": "NCCc1c[nH]c2ccc(OS(=O)(=O)O)cc12", "note": "[Compound 5-HT-sulfate, 5-HT-sulfate]", "values": [{"measurement": "TrkB tyrosine phosphorylation (immunofluorescent staining)", "setting": "TrkB [1]", "value": "had no effect"}]}
{"smiles": "CNCC(=O)c1ccc(O)c(O)c1", "note": "[Compound I-2, 2-(methylamino)-3′,4′-dihydroxy-acetophenone]", "values": [{"measurement": "TrkB activation in primary cortical neurons", "setting": "TrkB [2]", "value": "display activity"}, {"measurement": "TrkB activation in the brains of the mice", "setting": "TrkB [3]", "value": "failed to activate TrkB"}]}
{"smiles": "CN[C@@H](C(N)=O)C(=O)c1ccc(O)c(O)c1", "note": "[Compound I-7]", "values": [{"measurement": "TrkB activation in primary cortical neurons", "setting": "TrkB [2]", "value": "display activity"}]}
{"smiles": "CN[C@@H](C(=O)N(C)C)[C@@H](O)c1ccc(O)c(O)c1", "note": "[Compound I-15]", "values": [{"measurement": "TrkB activation in primary cortical neurons", "setting": "TrkB [2]", "value": "display activity"}]}
{"smiles": "O=C(O)CN(CCN(CC(=O)O)CC(=O)O)CC(=O)O", "note": "[EDTA]", "values": [{"measurement": "Effect of EDTA on stimulatory activity of TrkB activation by Zn", "setting": "TrkB [4]; 1 mM EDTA, Zn 100 μM, 15 minutes", "value": "blocked"}]}
{"smiles": "c1ccc(CCCN2CCN(CCOC(c3ccccc3)c3ccccc3)CC2)cc1", "note": "[GBR12935]", "values": [{"measurement": "Effect of inhibitor on dopamine-mediated TrkB activation", "setting": "TrkB [4]; cortical neurons", "value": "significantly blocked"}]}
{"smiles": "N[C@@H](Cc1ccc(O)c(O)c1)C(=O)O", "note": "[L-DOPA, L-dihydroxyphenylalanine]", "values": [{"measurement": "TrkB activation in BDNF -/- cortex", "setting": "TrkB [5]", "value": "strongly triggered TrkB activation"}, {"measurement": "TrkB tyrosine phosphorylation/activation in mice", "setting": "TrkB [6]", "value": "provoked evident TrkB activation"}, {"measurement": "TrkB activation in primary cultured neurons", "setting": "TrkB [7]", "value": "rapidly induced TrkB activation"}]}
{"smiles": "NCCc1ccc(O)c(O)c1", "note": "[dopamine]", "values": [{"measurement": "TrkB activation in NET -/- neurons", "setting": "TrkB [8]", "value": "notable TrkB activation"}]}
{"smiles": "COc1ccc2[nH]cc(CCNC(C)=O)c2c1", "note": "[melatonin]", "values": [{"measurement": "TrkB tyrosine phosphorylation (immunofluorescent staining)", "setting": "TrkB [1]", "value": "did not"}, {"measurement": "TrkB activation (immunoblotting of neuronal lysates)", "setting": "TrkB [7]", "value": "not activated"}]}
{"smiles": "NCCc1c[nH]c2ccc(O)cc12", "note": "[serotonin]", "values": [{"measurement": "Activation of TrkB in BDNF-null cortical neurons", "setting": "TrkB [9]", "value": "had no effect"}, {"measurement": "TrkB phosphorylation provoked by the substance", "setting": "TrkB F616A", "value": "had no effect"}, {"measurement": "TrkB tyrosine phosphorylation (immunofluorescent staining)", "setting": "TrkB [1]", "value": "did not"}, {"measurement": "TrkB activation (immunoblotting of neuronal lysates)", "setting": "TrkB [7]", "value": "not activated"}]}
